Measured values taken from patent US11155636B2, “PRL3 antibody” (Agency for Science, Technology and Research, priority 2016, dated 2021).
Each block holds one molecule with its values, some of them ahead of it.

Tests used:
[1] = set-up: species or system Balb/C nude mice; conditions: mouse, in vivo
Experimental: WBC staining of mouse blood smears: After smearing a thin layer from a drop of fresh mouse blood on a glass slide, slides were baked at 37° C. for 1 h before flooding with modified Wright Giemsa stain (Sigma) for 1 min followed by washing with deionized water for 3 min. After drying, the stained slide was observed under microscope, with WBCs stained blue. Estimation of total WBC was performed under light microscopy (Olympus) by counting in ten visual fields in each slide and calculation using the equation WBCs/μl=(total number of counted WBC/number of fields)×2000. Full blood counts: Hematological analysis of mice samples was conducted by Quest Laboratories (Singapore).
We tested four treatment protocols: PBS control (Group 1), PRL3-zumab monotherapy (Group 2), PRL3-zumab+5-FU combination therapy (Group 3), or 5-FU monotherapy (Group 4). According to the treatment protocol, bi-weekly doses of PRL3-zumab (100 μg/dose) or 5-FU (30 mg/kg/dose) were administered individually, or in combination, intravenously into groups of nude mice carrying orthotopic PRL-3^+ SNU-484 gastric tumors.

[2] = system: PRL-3^+ SNU-484 orthotopic gastric tumors; experiment: Orthotopic gastric cancer model, SNU-484; format: in vivo, Balb/C nude mice
Experimental: Eight-week old male Balb/C nude mice obtained from the Biological Resource Centre (A*STAR, Singapore) were used for all animal models in this study. […] The stomach was taken out through the abdominal incision by surgical forceps, and cancer cells were injected into the subserosa layer. Subsequently, the stomach was placed back and the abdomen was sutured back in layers. […] The treatment regime commenced on day 2 post-inoculation of cancer cells in the gastric subserosa layer. […] PBS was used as a control in “untreated” mice. […] Tumor volumes were calculated using the formula: volume=0.4×tumor length×tumor width×tumor width.
10 μm-thick cryosection slides were fixed with 4% formalin for 20 min and incubated with 1% H2O2-PBS in the dark for 5 min. Washed slides were then blocked in PBS containing 10% goat serum and 1% BSA (Sigma) for 1 h at RT. Subsequently, slides were washed four times in PBS-0.05% Tween-20 with gentle shaking and incubated with goat anti-human labeled polymer-HRP (Dako) for 2 h before washing extensively and incubating with substrate-chromogen solution (Dako) for 10-20 min in the dark. Mounted slides were examined using a brightfield microscope (Olympus) and representative images were captured.

[3] = system: advanced HCC; conditions: cited from earlier work
[4] = system: PRL-3+ and PRL-3− cancer cells; experiment: In vitro cancer cell growth assay; format: cell-based; conditions: PRL-3+ and PRL-3− cells; PRL3-zumab up to 50 mg/mL

overall animal activity [1]: reduction in overall animal activity
reduction in peripheral WBC counts compared to control or PRL3-zumab monotherapy [1]: 5 fold
Structure (SMILES): O=c1[nH]cc(F)c(=O)[nH]1 [5-FU, 5-fluorouracil]
haematological profile (full blood counts) [1]: reduced neutrophil, lymphocyte, and monocyte counts
mean tumor volume ([2]; four-group study, bi-weekly i.v. PRL3-zumab 100 μg/dose and/or 5-FU 30 mg/kg/dose, Day 28, n=5 per group): 1.76±0.52 cm^3
numbers of infiltrating B cells and NK cells (immunofluorescence) ([2]; tumor sections, compared to untreated): lack of B or NK cell infiltration

Structure (SMILES): CNC(=O)c1cc(Oc2ccc(NC(=O)Nc3ccc(Cl)c(C(F)(F)F)c3)cc2)ccn1 [Sorafenib]
extended median survival [3]: 2.8 months

Structure (SMILES): N.N.[Cl][Pt][Cl] [cisplatin]
cancer cell growth in vitro [4]: dose-dependent, nonspecific cell killing
